{
  "source": "patent US8273780B2",
  "about": "“Polycyclic antagonists of lysophosphatidic acid receptors” (Amira Pharmaceuticals, Inc., priority 2009, dated 2012)",
  "key": {"[1]": {"target": "T1, Human LPA3 (Homo sapiens, UniProt Q9UBY5)", "T1 construct": "The full-length cDNA fragment for human LPA3 was obtained by PCR from the vector; expressed in transfected cells; cDNA from the Missouri S&T cDNA Resource Center", "T1 sequence (Q9UBY5 1-353)": "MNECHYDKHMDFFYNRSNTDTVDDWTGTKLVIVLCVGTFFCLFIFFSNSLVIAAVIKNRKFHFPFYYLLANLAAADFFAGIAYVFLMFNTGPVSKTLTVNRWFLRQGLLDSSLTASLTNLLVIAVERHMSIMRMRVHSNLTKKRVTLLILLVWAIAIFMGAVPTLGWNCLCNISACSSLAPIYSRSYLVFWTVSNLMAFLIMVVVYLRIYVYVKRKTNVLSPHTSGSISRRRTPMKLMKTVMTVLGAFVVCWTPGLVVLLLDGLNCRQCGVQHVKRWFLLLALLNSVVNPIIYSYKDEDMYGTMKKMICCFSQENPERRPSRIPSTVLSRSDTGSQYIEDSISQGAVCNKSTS", "assay": "LPA3 calcium flux assay", "format": "cell-based", "conditions": "CHO cells expressing human LPA3, 10 nM LPA; read-out: HLPA3 Ca Flux IC50", "procedure,_shortened": "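Stable hLPA3-CHO cells, serum-starved overnight, loaded with Calcium 4 dye in HBSS/20 mM HEPES/0.3% fatty-acid-free HSA for 1 h at 37° C. Compounds added for 30 min at room temperature, then cells stimulated with 10 nM LPA. Intracellular Ca^2+ measured; IC50 from titration curves.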"}, "[2]": {"test_system": "C57BL/6 mice", "assay": "Mouse carbon tetrachloride (CCl4)-induced liver fibrosis model", "format": "in vivo", "conditions": "compared to the untreated group", "experimental": "Female C57BL/6 mice (Harlan, 20-25 g) housed 4/cage are given free access to food and water and allowed to acclimate for at least 7 days prior to test initiation. After the habituation phase, mice receive CCl4 (1.0 ml/kg body weight) diluted in corn oil vehicle (100 μL volume) via i.p. injection twice a week for 8 weeks. (Higazi, A. A. et al., Clin Exp Immunol. 2008 April; 152(1):163-73. Epub 2008 Feb. 14.). Control mice receive an equivalent volume of corn oil vehicle only. Test compound or vehicle is delivered po, ip or sc daily. […] Liver tissue homogenates are analyzed for collagen levels using Sircol (Biocolor Ltd, UK). Fixed Liver tissue is stained using hematoxylin and eosin (H&E) and trichrome and liver fibrosis is determined by quantitative, computer-assisted densitometry of collagen in liver tissue sections using light microscopy. Plasma and liver tissue lysates are also analyzed for concentrations of inflammatory, pro-fibrotic and tissue injury biomarkers including transforming growth factor β1, hyaluronic acid, tissue inhibitor of metalloproteinase-1, matrix matelloproteinase-7, connective tissue growth factor and lactate dehydrogenase activity, using commercially available ELISA. The resulting data are plotted using Graphpad prism and statistical differences between groups determined."}, "[3]": {"test_system": "BALB/c mice", "assay": "Mouse dermal vascular leak assay", "format": "in vivo", "conditions": "30 mg/kg oral gavage, three hours before dye; intradermal LPA 30 μg", "experimental": "Female BALB/c mice (Harlan) weighing 20-25 grams were given free access to standard mouse chow and water and were allowed to acclimate for two weeks prior to study initiation. Compound 1 was prepared in water vehicle at a concentration of 3 mg/ml and delivered by oral gavage at a volume of 10 ml/kg to yield a dose of 30 mg/kg. Three hours following dose, mice were placed into a restraining device and given Evan's blue dye intravenously by tail vein injection (0.2 ml of a 0.5% solution). Mice were then anesthetized using 3% isoflurane anaesthesia to allow for intradermal injection of LPA (30 μg in 20 μl 0.1% fatty acid free BSA). Thirty minutes after LPA injection mice were sacrificed by CO2 inhalation and the skin removed from the challenge site and placed into 2 ml formamide for overnight extraction of Evan's blue dye.\nFollowing extraction, a 150 μl aliquot of formamide for each tissue sample was placed into a 96 well plate and read at 610 nm using a photospectometer. The resulting data (OD units) were plotted using GraphPad Prizm. In this experiment compound 1 reduced LPA-induced Evan's blue dye leak into the skin."}},
  "note": "pIC50: −log10 of the molar value.",
  "data": [
    {"smiles": "Cc1noc(-c2ccc(-c3ccc(C4(C(=O)O)CC4)cc3)cc2)c1NC(=O)O[C@H](C)c1ccccc1", "note": "[Compound 1, 1-{4′-[3-Methyl-4-((R)-1-phenyl-ethoxycarbonylamino)-isoxazol-5-yl]-biphenyl-4-yl}-cyclopropanecarboxylic acid]", "values": [
      {"measurement": "pIC50", "setting": "[1]", "value": "5.00 to 6.00"},
      {"measurement": "collagen deposition in the liver", "setting": "[2]", "value": "significantly reduced"},
      {"measurement": "liver weight increase", "setting": "[2]", "value": "significantly reduced"},
      {"measurement": "LPA-induced Evan's blue dye leak into the skin", "setting": "[3]", "value": "reduced"}
    ]}
  ]
}
